# Assay results as given in PubChem BioAssay AID1845215 (Molecular Pharmacology Branch, DTP, NCI, 2023).
# Active and inactive are the calls of the source. Rule for the calls: active = viability on the fitted dose curve at most 10% of control; inactive = the rest.
# Test system: SW 1271 complex tumor spheroid viability
# Assay: Anticancer human tumor SW 1271 cell line growth inhibition;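 for IC50: spheroids exposed to agents for seven days before readout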;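 for viability, T/C: spheroids exposed to agents for seven days before readout; percent of DMSO vehicle control luminescence so 100% = vehicle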
# Settings: for IC50: curve of first compound; for viability, T/C: stronger effect = lower value
# Outline: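 Single agents and combinations were tested on spheroids built from tumor cells plus HUVEC and hMSC, at half-log dilutions starting at or near clinical Cmax, else 10 microM; final DMSO 0.25% (v/v).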
# [1] = second compound 1 µM, first compound 0.00949 µM
# [2] = second compound 1 µM, first compound 0.03 µM
# [3] = second compound 1 µM, first compound 0.0949 µM
# [4] = second compound 1 µM, first compound 0.3 µM
# [5] = second compound 1 µM, first compound 0.949 µM
# [6] = second compound 1 µM, first compound 3 µM
# [7] = second compound 3.16 µM, first compound 0.00949 µM
# [8] = second compound 3.16 µM, first compound 0.03 µM
# [9] = second compound 3.16 µM, first compound 0.0949 µM
# [10] = second compound 3.16 µM, first compound 0.3 µM
# [11] = second compound 3.16 µM, first compound 0.949 µM
# [12] = second compound 3.16 µM, first compound 3 µM
# [13] = second compound 10 µM, first compound 0.00949 µM
# [14] = second compound 10 µM, first compound 0.03 µM
# [15] = second compound 10 µM, first compound 0.0949 µM
# [16] = second compound 10 µM, first compound 0.3 µM
# [17] = second compound 10 µM, first compound 0.949 µM
# [18] = second compound 10 µM, first compound 3 µM
# [19] = second compound 31.6 µM, first compound 0.00949 µM
# [20] = second compound 31.6 µM, first compound 0.03 µM
# [21] = second compound 31.6 µM, first compound 0.0949 µM
# [22] = second compound 31.6 µM, first compound 0.3 µM
# [23] = second compound 31.6 µM, first compound 0.949 µM
# [24] = second compound 31.6 µM, first compound 3 µM
# [25] = second compound 100 µM, first compound 0.00949 µM
# [26] = second compound 100 µM, first compound 0.03 µM
# [27] = second compound 100 µM, first compound 0.0949 µM
# [28] = second compound 100 µM, first compound 0.3 µM
# [29] = second compound 100 µM, first compound 0.949 µM
# [30] = second compound 100 µM, first compound 3 µM
smiles,measurement,setting,value
CC(C)n1c(=O)n(C)c2cnc3cc(F)c(-c4ccc(OCCCN5CCCCC5)nc4)cc3c21 + COc1cc2c(cc1O)CCNC21CSC2c3c(OC(C)=O)c(C)c4c(c3C(COC1=O)N1C(O)C3Cc5cc(C)c(OC)c(O)c5C(C21)N3C)OCO4,IC50,second compound 30 pM,931 nM
same,IC50,second compound 94.9 pM,< 31.6 nM
same,IC50,second compound 0.0003 µM,< 31.6 nM
same,IC50,second compound 0.000949 µM,< 31.6 nM
same,IC50,second compound 0.003 µM,< 31.6 nM
same,"viability, T/C","second compound 30 pM, first compound 0.0316 µM",65%
same,"viability, T/C","second compound 30 pM, first compound 0.1 µM",57.5%
same,"viability, T/C","second compound 30 pM, first compound 0.316 µM",53.4%
same,"viability, T/C","second compound 30 pM, first compound 1 µM",45.6%
same,"viability, T/C","second compound 30 pM, first compound 3.16 µM",51.8%
same,"viability, T/C","second compound 30 pM, first compound 10 µM",29.3%
same,"viability, T/C","second compound 94.9 pM, first compound 0.0316 µM",29.6%
same,"viability, T/C","second compound 94.9 pM, first compound 0.1 µM",28.7%
same,"viability, T/C","second compound 94.9 pM, first compound 0.316 µM",22.3%
same,"viability, T/C","second compound 94.9 pM, first compound 1 µM",24.2%
same,"viability, T/C","second compound 94.9 pM, first compound 3.16 µM",20.9%
same,"viability, T/C","second compound 94.9 pM, first compound 10 µM",15.8%
same,"viability, T/C","second compound 0.0003 µM, first compound 0.0316 µM",28.5%
same,"viability, T/C","second compound 0.0003 µM, first compound 0.1 µM",33.3%
same,"viability, T/C","second compound 0.0003 µM, first compound 0.316 µM",24.7%
same,"viability, T/C","second compound 0.0003 µM, first compound 1 µM",24.2%
same,"viability, T/C","second compound 0.0003 µM, first compound 3.16 µM",19.1%
same,"viability, T/C","second compound 0.0003 µM, first compound 10 µM",12.9%
same,"viability, T/C","second compound 0.000949 µM, first compound 0.0316 µM",4.24%
same,"viability, T/C","second compound 0.000949 µM, first compound 0.1 µM",3.92%
same,"viability, T/C","second compound 0.000949 µM, first compound 0.316 µM",2.81%
same,"viability, T/C","second compound 0.000949 µM, first compound 1 µM",1.61%
same,"viability, T/C","second compound 0.000949 µM, first compound 3.16 µM",1.37%
same,"viability, T/C","second compound 0.000949 µM, first compound 10 µM",1.05%
same,"viability, T/C","second compound 0.003 µM, first compound 0.0316 µM",0.12%
same,"viability, T/C","second compound 0.003 µM, first compound 0.1 µM",0.11%
same,"viability, T/C","second compound 0.003 µM, first compound 0.316 µM",0.09%
same,"viability, T/C","second compound 0.003 µM, first compound 1 µM",0.1%
same,"viability, T/C","second compound 0.003 µM, first compound 3.16 µM",0.1%
same,"viability, T/C","second compound 0.003 µM, first compound 10 µM",0.16%
CNCc1ccc(-c2cc(-c3nc(-c4ccc(S(=O)(=O)C(C)C)cc4)cnc3N)on2)cc1 + Cn1nnc2c(C(N)=O)ncn2c1=O,IC50,second compound 1 µM,213 nM
same,IC50,second compound 3.16 µM,170 nM
same,IC50,second compound 10 µM,185 nM
same,IC50,second compound 31.6 µM,174 nM
same,IC50,second compound 100 µM,52.4 nM
same,"viability, T/C",[1],105%
same,"viability, T/C",[2],102%
same,"viability, T/C",[3],98.8%
same,"viability, T/C",[4],29.5%
same,"viability, T/C",[5],7.14%
same,"viability, T/C",[6],0.1%
same,"viability, T/C",[7],109%
same,"viability, T/C",[8],106%
same,outcome,[9],inactive
same,"viability, T/C",[10],23.8%
same,"viability, T/C",[11],7.34%
same,"viability, T/C",[12],0.12%
same,"viability, T/C",[13],99.1%
same,"viability, T/C",[14],105%
same,"viability, T/C",[15],89.7%
same,"viability, T/C",[16],20.8%
same,"viability, T/C",[17],5.82%
same,"viability, T/C",[18],0.11%
same,"viability, T/C",[19],115%
same,"viability, T/C",[20],82.3%
same,"viability, T/C",[21],75.5%
same,"viability, T/C",[22],17.5%
same,"viability, T/C",[23],37.5%
same,"viability, T/C",[24],0.15%
same,"viability, T/C",[25],93.7%
same,"viability, T/C",[26],69.8%
same,"viability, T/C",[27],29.5%
same,"viability, T/C",[28],9.36%
same,"viability, T/C",[29],29.7%
same,"viability, T/C",[30],0.18%
Cn1ncnc1[C@H]1c2n[nH]c(=O)c3cc(F)cc(c23)N[C@@H]1c1ccc(F)cc1 + Cn1nnc2c(C(N)=O)ncn2c1=O,IC50,second compound 1 µM,9.72 nM
same,IC50,second compound 3.16 µM,< 9.49 nM
same,IC50,second compound 10 µM,< 9.49 nM
same,IC50,second compound 31.6 µM,< 9.49 nM
same,IC50,second compound 100 µM,< 9.49 nM
same,"viability, T/C",[1],50.5%
same,"viability, T/C",[2],28.1%
same,"viability, T/C",[3],23.4%
same,"viability, T/C",[4],26.2%
same,"viability, T/C",[5],25.8%
same,"viability, T/C",[6],20.7%
same,"viability, T/C",[7],41.6%
same,"viability, T/C",[8],25.2%
same,"viability, T/C",[9],29.2%
same,"viability, T/C",[10],22.1%
same,"viability, T/C",[11],28.2%
same,"viability, T/C",[12],22%
same,"viability, T/C",[13],32.9%
same,"viability, T/C",[14],25.5%
same,"viability, T/C",[15],25.6%
same,"viability, T/C",[16],28.6%
same,"viability, T/C",[17],29.5%
same,"viability, T/C",[18],20.1%
same,"viability, T/C",[19],27.1%
same,"viability, T/C",[20],27.1%
same,"viability, T/C",[21],29.3%
same,"viability, T/C",[22],28.5%
same,"viability, T/C",[23],30.5%
same,"viability, T/C",[24],22%
same,"viability, T/C",[25],29.8%
same,"viability, T/C",[26],29.9%
same,"viability, T/C",[27],32.1%
same,"viability, T/C",[28],32.8%
same,"viability, T/C",[29],28.7%
same,"viability, T/C",[30],19.9%
O=C(c1cc(Cc2n[nH]c(=O)c3ccccc23)ccc1F)N1CCN(C(=O)C2CC2)CC1 + Cn1nnc2c(C(N)=O)ncn2c1=O,IC50,second compound 1 µM,2200 nM
same,IC50,second compound 3.16 µM,2110 nM
same,IC50,second compound 10 µM,1640 nM
same,IC50,second compound 31.6 µM,443 nM
same,IC50,second compound 100 µM,< 94.9 nM
same,"viability, T/C",[3],95.3%
same,"viability, T/C",[4],78.7%
same,"viability, T/C",[5],69.1%
same,"viability, T/C",[6],45.7%
same,"viability, T/C","second compound 1 µM, first compound 9.49 µM",24.4%
same,"viability, T/C","second compound 1 µM, first compound 30 µM",32.5%
same,"viability, T/C",[9],86.3%
same,"viability, T/C",[10],82.2%
same,"viability, T/C",[11],70.7%
same,"viability, T/C",[12],41%
same,"viability, T/C","second compound 3.16 µM, first compound 9.49 µM",33%
same,"viability, T/C","second compound 3.16 µM, first compound 30 µM",34.4%
same,"viability, T/C",[15],95.6%
same,"viability, T/C",[16],86.2%
same,"viability, T/C",[17],63.2%
same,"viability, T/C",[18],34.5%
same,"viability, T/C","second compound 10 µM, first compound 9.49 µM",34.4%
same,"viability, T/C","second compound 10 µM, first compound 30 µM",27%
same,"viability, T/C",[21],82.5%
same,"viability, T/C",[22],58.1%
same,"viability, T/C",[23],33.9%
same,"viability, T/C",[24],33.1%
same,"viability, T/C","second compound 31.6 µM, first compound 9.49 µM",33.5%
same,"viability, T/C","second compound 31.6 µM, first compound 30 µM",27.6%
same,"viability, T/C",[27],35.1%
same,"viability, T/C",[28],26.4%
same,"viability, T/C",[29],29%
same,"viability, T/C",[30],32.2%
same,"viability, T/C","second compound 100 µM, first compound 9.49 µM",28.8%
same,"viability, T/C","second compound 100 µM, first compound 30 µM",28.2%
